Results reported in patent publication US20100144819A1, “Synergistic Methods for Control of Pests” (FMC A[…]. LTD., priority 2008, published 2010).

Key:
[1] = tested on: black house spider (Badumna insignis); experiment: Black house spider mortality on treated pine plywood; format: in vivo; conditions: suspension concentrate diluted in water, 24 h
Source text: (§1) The presence of a synergistic effect between the two active ingredients is established with the aid of the Colby equation (see Colby, S. R., “Calculating Synergistic and Antagonistic Responses of Herbicide Combinations”, Weeds 1967, 15, pg 20-22): E=X+Y−(XY/100).
(§2) Using the method of Colby, the presence of asynergistic interaction between two active ingredients is established by first calculating the expected activity, ‘E’, of the mixture based on activities of the two components applied alone. If ‘E’ is lower than the observed activity, synergy is present. In the equation above, ‘X’ is the percentage control observed when bifenthrin applied alone at rate ‘x’. The ‘Y’ term is percentage control observed when fipronil applied alone at rate ‘y’. The equation calculates ‘E’, the expected activity of the mixture of ‘X’ at rate ‘x’ with ‘Y’ at rate ‘y’ if their effects are strictly additive and no interaction has occurred.
The compositions of the present invention were tested for black house spider (Badumna insignis) activity in the following manner:
Formulations of the test compounds were made as follows: • 1).
The testing was conducted on pine plywood surfaces that had dimensions of 20 cm×20 cm. The above formulations were diluted in water to achieve the desired concentration rate in grams of active ingredient per liter prior to application to the pine plywood. Each treatment was applied using an airbrush sprayer and compressed air as the propellant. The equipment was calibrated prior to use and the treatments were applied to the pine plywood surfaces at a rate of 1 L/10 m^2 (4 mL of final test solution per 20 cm×20 cm pine plywood surface)'. For example, in order to obtain a application rate of […] of active ingredient per 10 m^2, 1.25 mL of the fipronil formulation 1) which contained 100 gram per liter suspension concentrate formulation of fipronil, was diluted in 1 liter of water to make a final test solution. Four mL of the final test solution was sprayed onto the pine plywood surface. The treated pine plywood was allowed to air dry at ambient temperature by storing horizontally away from direct sunlight. Three black house spiders, medium to large in size collected from the field 1 to 2 days prior to testing, were placed separately under untreated portion cups (7 cm diameter by 7 cm deep) on the treated pine plywood surfaces. The untreated portion cups provided an opportunity for the spiders to seek an untreated area. The spiders were assessed after 24 hours exposure by counting the number of alive and the number of knocked down/dead spiders. There were three replications of each treatment.

[2] = tested on: American cockroach (Periplaneta americana); experiment: American cockroach mortality on treated filter paper; format: in vivo; conditions: 24 h
Source text: as §1, §2
The compositions of the present invention were tested for American cockroach (Periplaneta americana) activity in the following manner:
Test solutions were made by dissolving technical grade bifenthrin and fipronil in acetone to provide appropriate rates of application of bifenthrin and fipronil alone, as well as combinations of bifenthrin and fipronil. The active ingredient concentrations tested were from 10 part per million (0.01 mg of active ingredient/mL or 0.01 g/L) to 1000 parts per million (1.0 mg of active ingredient/mL or 1.0 g/L), four replicates per rate. In a fume cabinet, one milliliter of a test solution was applied to a 9 cm Whatman® 2 qualitative filter paper using a calibrated pipette. The application started at the center of the filter paper with individual drops being applied in an outward circular motion so that the entire filter paper was uniformly treated. Acetone only (one mL) was applied in the same manner to provide an untreated control (UTC). The treated filter papers were allowed to dry for two hours. The dried, treated or untreated filter paper was placed into a plastic cup having a base diameter of 90 mm, in which the upper portion of the walls of the plastic cup were coated with a fluoropolymer resin (PFTE-30) insect barrier (Fluoron® available from BioQuip Products Inc.) to prevent the insects from climbing out of the container. Ten late instar, healthy and active American cockroaches (Periplaneta americana) were momentarily immobilized using carbon dioxide and then placed onto the filter paper. The top of the plastic containers were covered with gauze to contain the cockroaches. The plastic containers were maintained at a temperature of 25° C. to 30° C. at ambient relative humidity out of direct sunlight. American cockroach mortality was assessed after 24 hours by counting the number of alive and the number of knocked down/dead cockroaches.
(§3) In order to compare the pesticidal effectiveness of the individual and combination treatments the LC 50 and LC 90 values (lethal concentration in ppm that would effectively knock down/kill 50% or 90% of the test pests) were calculated. In calculating the LC values for the various mixtures of bifenthrin and fipronil, probit analysis was conducted on the bifenthrin in concentration of the mixture. […] The values calculated from the data of Table 2 are in Table 2A below.

[3] = tested on: German cockroach (Blatella germanica); experiment: German cockroach mortality on treated filter paper; format: in vivo, Blattella germanica; conditions: 24 h
Source text: as §1, §2
The compositions of the present invention were tested for German cockroach (Blatella germanica) activity in the following manner.
Test solutions were made by dissolving technical grade bifenthrin and fipronil in acetone to provide appropriate rates of application of bifenthrin and fipronil alone, as well as combinations of bifenthrin and fipronil. The active ingredient concentrations tested were from 50 parts per million (0.05 mg of active ingredient/mL or 0.05 g/L) to 500 parts per million (0.5 mg of active ingredient/mL or 0.5 g/L), four replicates per rate. In a fume cabinet, one milliliter of a test solution was applied to a 9 cm Whatman® 2 qualitative filter paper using a calibrated pipette. The application started at the center of the filter paper with individual drops being applied in an outward circular motion so that the entire filter paper was uniformly treated. Acetone only (one mL) was applied in the same manner to provide an untreated control (UTC). The treated filter papers were allowed to dry for two hours. The dried, treated or untreated filter paper was placed into a plastic Petri dish and ten late instar, healthy and active German cockroaches (Blattella germanica) were momentarily immobilized using carbon dioxide and then placed onto the filter paper. The lid of each Petri dish was put on to contain the cockroaches. The Petri dishes were maintained at a temperature of 25° C. to 30° C. at ambient relative humidity out of direct sunlight. German cockroach mortality was assessed after 24 hours by counting the number of alive and the number of knocked down/dead cockroaches.
as §3, with “fipronil” for “bifenthrin in”, “1” for “2”, “1A” for “2A”

[4] = probit analysis of Table 2 data, mixtures as bifenthrin:fipronil
[5] = probit analysis of Table 1 data, mixtures as bifenthrin:fipronil

SMILES: Cc1c(COC(=O)[C@@H]2[C@H](/C=C(\Cl)C(F)(F)F)C2(C)C)cccc1-c1ccccc1 (racemic) [Bifenthrin, 2-methylbiphenyl-3-ylmethyl (Z)-(1RS)-cis-3-(2-chloro-3,3,3-trifluoroprop-1-enyl)-2,2-dimethylcyclopropanecarboxylate]
- Observed % Control ([1]; 0.25 g ai/L at 1 L/10 m^2): 88.9%
- Observed % Control ([1]; 0.5 g ai/L at 1 L/10 m^2): 88.9%
- % Observed Control ([2]; 100 ppm (0.1 mg/mL)): 2.5%
- Mortality Rep 1 dead/alive ([2]; 100 ppm (0.1 mg/mL)): 1/9
- Mortality Rep 2 dead/alive ([2]; 100 ppm (0.1 mg/mL)): 0/10
- Mortality Rep 3 dead/alive ([2]; 100 ppm (0.1 mg/mL)): 0/10
- Mortality Rep 4 dead/alive ([2]; 100 ppm (0.1 mg/mL)): 0/10
- % Observed Control ([2]; 125 ppm (0.125 mg/mL)): 45%
- Mortality Rep 1 dead/alive ([2]; 125 ppm (0.125 mg/mL)): 1/9
- Mortality Rep 2 dead/alive ([2]; 125 ppm (0.125 mg/mL)): 10/0
- Mortality Rep 3 dead/alive ([2]; 125 ppm (0.125 mg/mL)): 7/3
- Mortality Rep 4 dead/alive ([2]; 125 ppm (0.125 mg/mL)): 0/10
- % Observed Control ([2]; 200 ppm (0.2 mg/mL)): 10%
- Mortality Rep 1 dead/alive ([2]; 200 ppm (0.2 mg/mL)): 0/10
- Mortality Rep 2 dead/alive ([2]; 200 ppm (0.2 mg/mL)): 0/10
- Mortality Rep 3 dead/alive ([2]; 200 ppm (0.2 mg/mL)): 0/10
- Mortality Rep 4 dead/alive ([2]; 200 ppm (0.2 mg/mL)): 4/6
- % Observed Control ([2]; 250 ppm (0.25 mg/mL)): 12.5%
- Mortality Rep 1 dead/alive ([2]; 250 ppm (0.25 mg/mL)): 1/9
- Mortality Rep 2 dead/alive ([2]; 250 ppm (0.25 mg/mL)): 1/9
- Mortality Rep 3 dead/alive ([2]; 250 ppm (0.25 mg/mL)): 2/8
- Mortality Rep 4 dead/alive ([2]; 250 ppm (0.25 mg/mL)): 1/9
- % Observed Control ([2]; 400 ppm (0.4 mg/mL)): 22.5%
- Mortality Rep 1 dead/alive ([2]; 400 ppm (0.4 mg/mL)): 1/9
- Mortality Rep 2 dead/alive ([2]; 400 ppm (0.4 mg/mL)): 2/8
- Mortality Rep 3 dead/alive ([2]; 400 ppm (0.4 mg/mL)): 4/6
- Mortality Rep 4 dead/alive ([2]; 400 ppm (0.4 mg/mL)): 2/8
- % Observed Control ([2]; 500 ppm (0.5 mg/mL)): 25%
- Mortality Rep 1 dead/alive ([2]; 500 ppm (0.5 mg/mL)): 0/10
- Mortality Rep 2 dead/alive ([2]; 500 ppm (0.5 mg/mL)): 5/5
- Mortality Rep 3 dead/alive ([2]; 500 ppm (0.5 mg/mL)): 2/8
- Mortality Rep 4 dead/alive ([2]; 500 ppm (0.5 mg/mL)): 3/7
- % Observed Control ([2]; 1000 ppm (1.0 mg/mL)): 97.5%
- Mortality Rep 1 dead/alive ([2]; 1000 ppm (1.0 mg/mL)): 10/0
- Mortality Rep 2 dead/alive ([2]; 1000 ppm (1.0 mg/mL)): 10/0
- Mortality Rep 3 dead/alive ([2]; 1000 ppm (1.0 mg/mL)): 10/0
- Mortality Rep 4 dead/alive ([2]; 1000 ppm (1.0 mg/mL)): 9/1
- LC 50 [2, 4]: 906 ppm
- LC 90 [2, 4]: 1618 ppm
- % Observed Control ([3]; 100 ppm (0.1 mg/mL)): 2.5%
- Mortality Rep 1 dead/alive ([3]; 100 ppm (0.1 mg/mL)): 0/10
- Mortality Rep 2 dead/alive ([3]; 100 ppm (0.1 mg/mL)): 0/10
- Mortality Rep 3 dead/alive ([3]; 100 ppm (0.1 mg/mL)): 0/10
- Mortality Rep 4 dead/alive ([3]; 100 ppm (0.1 mg/mL)): 1/9
- % Observed Control ([3]; 250 ppm (0.25 mg/mL)): 90%
- Mortality Rep 1 dead/alive ([3]; 250 ppm (0.25 mg/mL)): 9/1
- Mortality Rep 2 dead/alive ([3]; 250 ppm (0.25 mg/mL)): 9/1
- Mortality Rep 3 dead/alive ([3]; 250 ppm (0.25 mg/mL)): 9/1
- Mortality Rep 4 dead/alive ([3]; 250 ppm (0.25 mg/mL)): 9/1
- % Observed Control ([3]; 500 ppm (0.5 mg/mL)): 97.5%
- Mortality Rep 1 dead/alive ([3]; 500 ppm (0.5 mg/mL)): 10/0
- Mortality Rep 2 dead/alive ([3]; 500 ppm (0.5 mg/mL)): 10/0
- Mortality Rep 3 dead/alive ([3]; 500 ppm (0.5 mg/mL)): 10/0
- Mortality Rep 4 dead/alive ([3]; 500 ppm (0.5 mg/mL)): 9/1
- LC 50 [3, 5]: 193 ppm
- LC 90 [3, 5]: 301 ppm
